Experimental data taken from ChEMBL document CHEMBL1139913, “Synthesis, biological evaluations, and tubulin binding poses of C-2alpha sulfur linked taxol analogues” (Bioorg Med Chem Lett, 2007).

Experiments:
[1] = system: A2780; test: Cytotoxicity against A2780 cells by MTT assay; format: functional, cell-based; conditions: Homo sapiens
[2] = Cytotoxicity against A2780/AD cells by MTT assay; format: functional, cell-based; conditions: Homo sapiens, A2780 ADR

Structure (SMILES) | IC50 [1] | IC50 [2]
CC(=O)O[C@H]1C(=O)[C@@]2(C)[C@H]([C@H](SC(=O)c3ccccc3)[C@]3(O)C[C@H](OC(=O)[C@H](O)[C@@H](NC(=O)c4ccccc4)c4ccccc4)C(C)=C1C3(C)C)[C@]1(OC(C)=O)CO[C@@H]1C[C@@H]2O | 11.7 µM | 27 µM
CC(=O)O[C@H]1C(=O)[C@@]2(C)[C@H]([C@H](SCc3ccccc3)[C@]3(O)C[C@H](OC(=O)[C@H](O)[C@@H](NC(=O)c4ccccc4)c4ccccc4)C(C)=C1C3(C)C)[C@]1(OC(C)=O)CO[C@@H]1C[C@@H]2O | 9.9 µM | 9.4 µM
CC(=O)O[C@H]1C(=O)[C@@]2(C)[C@H]([C@H](SC(=O)c3ccccc3)[C@]3(O)C[C@H](OC(=O)[C@H](O)[C@@H](NC(=O)OC(C)(C)C)c4ccccc4)C(C)=C1C3(C)C)[C@]1(OC(C)=O)CO[C@@H]1C[C@@H]2O | 2.4 µM | 6.96 µM
CC(=O)O[C@H]1C(=O)[C@@]2(C)[C@H]([C@H](SCc3ccccc3)[C@]3(O)C[C@H](OC(=O)[C@H](O)[C@@H](NC(=O)OC(C)(C)C)c4ccccc4)C(C)=C1C3(C)C)[C@]1(OC(C)=O)CO[C@@H]1C[C@@H]2O | 3.5 µM | 8.3 µM
CC(=O)O[C@H]1C(=O)[C@@]2(C)[C@H]([C@H](OC(=O)c3ccccc3)[C@]3(O)C[C@H](OC(=O)[C@H](O)[C@@H](NC(=O)c4ccccc4)c4ccccc4)C(C)=C1C3(C)C)[C@]1(OC(C)=O)CO[C@@H]1C[C@@H]2O [PACLITAXEL] | 0.0016 µM | 0.92 µM
